Source: PubChem BioAssay AID1963981 (Molecular Pharmacology Branch, DTP, NCI, 2024)

Tested on: 354836-022-R-J1-PDC multicell spheroid viability
Experiment: Anticancer human tumor 354836-022-R-J1-PDC patient-derived head and neck squamous cell carcinoma cell line growth inhibition [PI3K]
Details: for IC50: curve of first compound; for viability, T/C: stronger effect = lower value
Excerpt: Combinatorial screen of targeted agents with the PI3K inhibitors inavolisib, alpelisib, duvelisib, and copanlisib in multi-cell type tumor spheroids
A high-throughput screen of multi-cell type tumor spheroids was designed to identify active combinations of targeted small molecules and PI3K pathway inhibitors. Complex spheroids include a stromal component modeled by human endothelial cells (HUVEC) and fibroblasts modeled by human mesenchymal stem cells (MSCs). The concentration ranges selected for each drug and investigational agent were based upon clinically achievable concentrations if the clinical Cmax of the agent was known.
Compounds. The drugs and investigational agents: inavolisib (NSC800729), alpelisib (NSC765974), duvelisib (NSC772469), copanlisib (NSC816437), ipatasertib (NSC767898), afuresertib (NSC778305), talazoparib (NSC767125), sapanisertib (NSC764658), selumetinib (NSC741078), tovorafenib (DAY101, NSC766906), vemurafenib (NSC761431), ravoxertinib (NSC781343), sotorasib (NSC818433), MRTX1133 (NSC 836407), abemaciclib (NSC 768073), palbociclib (NSC758247), venetoclax (NSC 766270), SY5609 (NSC837396), enzalutamide (NSC755605), and darolutamide (NSC825331), were obtained from the National Cancer Institute (NCI) Developmental Therapeutics Program Chemical Repository. The FDA-approved anticancer drug set is available from the NCI Developmental Therapeutics Program. […] The stock solutions were prepared in dimethyl sulfoxide (DMSO, Sigma-Aldrich, St. Louis, MO, cat. D2650) at 800-fold the tested concentration and stored at -70 degrees C prior to their use. All drugs and investigational agents were tested over a range starting from a high concentration at or near the clinical Cmax and decreasing in half-log increments. If the clinical Cmax for an agent had not been determined, the highest concentration tested was 10 microM.
Cell Culture. All cells were maintained in an incubator at 37 degrees C and 5% CO2 with 95% humidity. The PDC lines were cultured according to standard operating procedures established by the NCI PDMR (https://pdmr.cancer.gov/sops/default.htm). All PDCs were thawed and cultured in Matrigel-coated flasks prepared with a working solution of 1X Ham's F-12 nutrient mix, without supplementation (Invitrogen, Waltham, MA, cat. 11765054), 100 U/mL penicillin-streptomycin (Invitrogen, cat. 15140122), and 2.5% Matrigel (Corning Inc., Corning, NY, cat. 354248) for the first three passages. The 354836-022-R-J1-PDC, 475296-252-R-J1-PDC, and 997726-040-R-J2-PDC lines were cultured in 6A media, which includes advanced DMEM/F-12 (Thermo Fisher Scientific, cat. 12634028), 10 mM HEPES (Thermo Fisher Scientific, cat. 15630080), 1X GlutaMAX supplement (Thermo Fisher Scientific, cat. 35050061), 0.1 mg/mL primocin (InvivoGen, San Diego, CA, cat. ant-pm-2), 10% defined fetal bovine serum, heat inactivated (HyClone Laboratories Inc., Logan, UT, cat. SH30070.03HI), 50% L-WRN conditioned media (ATCC, cat. CRL-3276), 1.25 mM N-Acetyl-L-cysteine (Sigma-Aldrich, cat. A9165), 10 mM nicotinamide (Sigma-Aldrich, cat. N0636), 1X B-27 supplement (Thermo Fisher Scientific, cat. 17504044), 1X N-2 supplement (Thermo Fisher Scientific, cat. 17502048), and 10 microM Y-27632 dihydrochloride (Tocris Bioscience, Bristol, United Kingdom, cat. 1254). The 624824-186-R-J2-PDC line was cultured in 6C/Colon 1B media, which includes all 6A media components plus 50 ng/mL human EGF recombinant protein (Thermo Fisher Scientific, cat. PHG0311). […]

[1] = second compound 0.00316 µM, first compound 0.0316 µM
[2] = second compound 0.00316 µM, first compound 0.1 µM
[3] = second compound 0.01 µM, first compound 0.0316 µM
[4] = second compound 0.01 µM, first compound 0.1 µM
[5] = second compound 0.0316 µM, first compound 0.0316 µM
[6] = second compound 0.0316 µM, first compound 0.1 µM
[7] = second compound 0.1 µM, first compound 0.0316 µM
[8] = second compound 0.1 µM, first compound 0.1 µM
[9] = second compound 0.316 µM, first compound 0.0316 µM
[10] = second compound 0.316 µM, first compound 0.1 µM
[11] = second compound 1 µM, first compound 0.0316 µM
[12] = second compound 1 µM, first compound 0.1 µM
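Further: spheroids exposed to agents for seven days before the viability read.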

CC(C)n1nc(-c2ccc3oc(N)nc3c2)c2c(N)ncnc21 + CC(Nc1ccc2c(c1)OCCn1cc(N3C(=O)OCC3C(F)F)nc1-2)C(N)=O
IC50 (second compound 0.00316 µM): 13.9 nM | IC50 (second compound 0.01 µM): 11.5 nM | IC50 (second compound 0.0316 µM): 7.62 nM | IC50 (second compound 0.1 µM): 10.6 nM | IC50 (second compound 0.316 µM): 5.01 nM | IC50 (second compound 1 µM): 1.86 nM | viability, T/C (second compound 0.00316 µM, first compound 0.000316 µM): 99.9% | viability, T/C (second compound 0.00316 µM, first compound 0.001 µM): 77% | viability, T/C (second compound 0.00316 µM, first compound 0.00316 µM): 80.6% | viability, T/C (second compound 0.00316 µM, first compound 0.01 µM): 53.9% | viability, T/C [1]: 35.2% | viability, T/C [2]: 12.7% | viability, T/C (second compound 0.01 µM, first compound 0.000316 µM): 104% | viability, T/C (second compound 0.01 µM, first compound 0.001 µM): 76% | viability, T/C (second compound 0.01 µM, first compound 0.00316 µM): 74.5% | viability, T/C (second compound 0.01 µM, first compound 0.01 µM): 51.3% | viability, T/C [3]: 37.8% | viability, T/C [4]: 13.1% | viability, T/C (second compound 0.0316 µM, first compound 0.000316 µM): 90.2% | viability, T/C (second compound 0.0316 µM, first compound 0.001 µM): 78.8% | viability, T/C (second compound 0.0316 µM, first compound 0.00316 µM): 59.2% | viability, T/C (second compound 0.0316 µM, first compound 0.01 µM): 50.5% | viability, T/C [5]: 25.9% | viability, T/C [6]: 9.5% | viability, T/C (second compound 0.1 µM, first compound 0.000316 µM): 74.1% | viability, T/C (second compound 0.1 µM, first compound 0.001 µM): 81.6% | viability, T/C (second compound 0.1 µM, first compound 0.00316 µM): 71.3% | viability, T/C (second compound 0.1 µM, first compound 0.01 µM): 49.4% | viability, T/C [7]: 25.4% | viability, T/C [8]: 6.95% | viability, T/C (second compound 0.316 µM, first compound 0.000316 µM): 60.3% | viability, T/C (second compound 0.316 µM, first compound 0.001 µM): 75.7% | viability, T/C (second compound 0.316 µM, first compound 0.00316 µM): 54% | viability, T/C (second compound 0.316 µM, first compound 0.01 µM): 37.7% | viability, T/C [9]: 22.2% | viability, T/C [10]: 6.64% | viability, T/C (second compound 1 µM, first compound 0.000316 µM): 57.5% | viability, T/C (second compound 1 µM, first compound 0.001 µM): 54.8% | viability, T/C (second compound 1 µM, first compound 0.00316 µM): 45.9% | viability, T/C (second compound 1 µM, first compound 0.01 µM): 34.8% | viability, T/C [11]: 19.4% | viability, T/C [12]: 5.83%

CCCS(=O)(=O)Nc1ccc(F)c(C(=O)c2c[nH]c3ncc(-c4ccc(Cl)cc4)cc23)c1F + CC(Nc1ccc2c(c1)OCCn1cc(N3C(=O)OCC3C(F)F)nc1-2)C(N)=O
IC50 (second compound 0.00316 µM): 6950 nM | IC50 (second compound 0.01 µM): 5960 nM | IC50 (second compound 0.0316 µM): 6550 nM | IC50 (second compound 0.1 µM): 5520 nM | IC50 (second compound 0.316 µM): 4220 nM | IC50 (second compound 1 µM): 3900 nM | viability, T/C [1]: 103% | viability, T/C [2]: 131% | viability, T/C (second compound 0.00316 µM, first compound 0.316 µM): 107% | viability, T/C (second compound 0.00316 µM, first compound 1 µM): 92.7% | viability, T/C (second compound 0.00316 µM, first compound 3.16 µM): 90.5% | viability, T/C (second compound 0.00316 µM, first compound 10 µM): 32.7% | viability, T/C [3]: 106% | viability, T/C [4]: 93.2% | viability, T/C (second compound 0.01 µM, first compound 0.316 µM): 117% | viability, T/C (second compound 0.01 µM, first compound 1 µM): 90.5% | viability, T/C (second compound 0.01 µM, first compound 3.16 µM): 78.5% | viability, T/C (second compound 0.01 µM, first compound 10 µM): 27.5% | viability, T/C [5]: 95.6% | viability, T/C [6]: 111% | viability, T/C (second compound 0.0316 µM, first compound 0.316 µM): 95.2% | viability, T/C (second compound 0.0316 µM, first compound 1 µM): 105% | viability, T/C (second compound 0.0316 µM, first compound 3.16 µM): 93% | viability, T/C (second compound 0.0316 µM, first compound 10 µM): 24.8% | viability, T/C [7]: 85.8% | viability, T/C [8]: 73.5% | viability, T/C (second compound 0.1 µM, first compound 0.316 µM): 81.8% | viability, T/C (second compound 0.1 µM, first compound 1 µM): 86.3% | viability, T/C (second compound 0.1 µM, first compound 3.16 µM): 79.4% | viability, T/C (second compound 0.1 µM, first compound 10 µM): 18.6% | viability, T/C [9]: 69.6% | viability, T/C [10]: 68.2% | viability, T/C (second compound 0.316 µM, first compound 0.316 µM): 78.4% | viability, T/C (second compound 0.316 µM, first compound 1 µM): 84.5% | viability, T/C (second compound 0.316 µM, first compound 3.16 µM): 61.8% | viability, T/C (second compound 0.316 µM, first compound 10 µM): 15.1% | viability, T/C [11]: 54% | viability, T/C [12]: 54.1% | viability, T/C (second compound 1 µM, first compound 0.316 µM): 66.1% | viability, T/C (second compound 1 µM, first compound 1 µM): 55.5% | viability, T/C (second compound 1 µM, first compound 3.16 µM): 63.4% | viability, T/C (second compound 1 µM, first compound 10 µM): 11.1%
